From article PMC10828691 (Heliyon, 2024)
Read-outs that look alike come from different tables or passages of the source.

Legend:
[1] = tested on: tissue nonspecific alkaline phosphatase (TNAP); settings: relative expression of control without drugs = 1.0
[2] = biological target: human placental alkaline phosphatase (hPAP) (Homo sapiens, UniProt P05187); assay: Alkaline phosphatase inhibition assay; type: biochemical
human placental alkaline phosphatase (hPAP), sequence (P05187 23-535): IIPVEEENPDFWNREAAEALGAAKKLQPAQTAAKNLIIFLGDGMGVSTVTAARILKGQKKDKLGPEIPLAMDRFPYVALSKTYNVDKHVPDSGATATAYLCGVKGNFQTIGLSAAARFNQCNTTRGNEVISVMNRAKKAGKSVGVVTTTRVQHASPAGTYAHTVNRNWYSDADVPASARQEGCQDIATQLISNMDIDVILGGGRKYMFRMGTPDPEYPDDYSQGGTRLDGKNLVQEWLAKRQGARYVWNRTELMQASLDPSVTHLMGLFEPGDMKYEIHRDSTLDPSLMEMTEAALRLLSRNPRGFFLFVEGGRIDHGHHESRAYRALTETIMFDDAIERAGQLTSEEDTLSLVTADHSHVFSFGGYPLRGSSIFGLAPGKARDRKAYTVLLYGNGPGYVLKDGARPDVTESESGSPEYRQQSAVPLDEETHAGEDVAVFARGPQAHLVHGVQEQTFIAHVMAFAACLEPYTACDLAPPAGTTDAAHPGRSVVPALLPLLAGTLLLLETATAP

IC50 [2] [µM]	Structure (SMILES)	TNAP Down-regulation ([1]; MCF-7, 10 μM) [fold]	TNAP Down-regulation ([1]; MCF-7, 5 μM) [fold]
	c1ccc([C@H]2CN3CCSC3=N2)cc1 [Levamisole]	0.26	
17.5 ± 0.19	CC(C)(O)c1ccccc1CC[C@@H](SCC1(CC(=O)O)CC1)c1cccc(/C=C/c2ccc3ccc(Cl)cc3n2)c1 [Montelukast, (R,E)-2-(1-(((1-(3-(2-(7-chloroquinolin-2-yl)vinyl)phenyl)-3-(2-(2-hydroxypropan-2-yl)phenyl)propyl)thio)methyl)cyclopropyl) acetic acid]		0.27
